In the PolyMetriX glass transition set one finds glass transition temperature data, which are given here for 77 compounds.

For `*/C=C/CC(C*)c1ccccc1` (repeat unit), the glass transition temperature worked out at 14.00 °C.

On to `*/N=N/c1ccc(NC(=O)CCC(=O)Nc2ccc(*)cc2)cc1` (repeat unit), for which the glass transition temperature was 220.00 °C.

Take `*C(=O)CCC1(CCC(=O)N2CCN(*)CC2)c2ccccc2-c2ccccc21` (repeat unit): the glass transition temperature is 145.00 °C.

`*C(=O)NCC(C)(C)CNC(=O)c1ncn(C)c1*` (repeat unit) came in with a glass transition temperature of 152.00 °C.

In turn, `*C(=O)NCCCCCCNC(=O)c1ncn(C)c1*` (repeat unit) displayed a glass transition temperature of 86.00 °C.

`*C(=O)c1ccc2c(c1)C(=O)N(C1CCC(CC3CCC(N4C(=O)c5ccc(*)cc5C4=O)C(C)C3)CC1C)C2=O` (repeat unit) gave a glass transition temperature of 240.00 °C.

For `*C/C=C/CS(*)(=O)=O` (repeat unit), the glass transition temperature amounted to 86.00 °C.

`*C/C=C/C[Si](*)(C)CCCOc1ccc2ccccc2c1` (repeat unit) registered a glass transition temperature of -1.00 °C.

`*C1CCC(CC2CCC(N3C(=O)C4C5C=CC(C6C(=O)N(*)C(=O)C56)C4C3=O)C(C)C2)CC1C` (repeat unit) yielded a glass transition temperature of 241.00 °C.

Compound `*CC(*)c1ccc([CH]([Sn]([CH3])([CH3])[CH3])[Sn]([CH3])([CH3])[CH3])cc1` (repeat unit) had a glass transition temperature of 140.00 °C.

`*CC(*)c1ccc(CCC(F)(F)C(F)(F)C(F)(F)C(F)(F)F)cc1` (repeat unit) had a glass transition temperature of 23.00 °C.

For `*CC(*)c1ccc(CCCCCCCCCCCCCC)cc1` (repeat unit), the glass transition temperature is -36.00 °C.

For `*CC(*)c1ccc(CCCCCCCCCCCCCCCC)cc1` (repeat unit), the glass transition temperature came to 4.50 °C.

With `*CC(*)c1ccc(COC(C)CC)cc1` (repeat unit), the glass transition temperature was 40.00 °C.

Compound `*CC(*)c1ccc(COCCC(F)(F)C(F)(F)C(F)(F)C(F)(F)C(F)(F)C(F)(F)C(F)(F)C(F)(F)F)cc1` (repeat unit) yielded a glass transition temperature of 55.00 °C.

The compound `*CC(*)c1ccc(COCCCCO)cc1` (repeat unit) showed a glass transition temperature of 20.00 °C.

`*CC(*)c1ccc(Cl)c(Cl)c1` (repeat unit) registered a glass transition temperature of 128.00 °C.

With `*CC(*)c1ccc(Cn2c3ccccc3c3ccccc32)cc1` (repeat unit), the glass transition temperature stood at 166.00 °C.

In turn, `*CC(*)c1ccc(N(c2ccccc2)c2ccccc2)cc1` (repeat unit) yielded a glass transition temperature of 123.50 °C.

`*CC(*)c1ccc(OC(C)=O)c(OC)c1` (repeat unit) showed a glass transition temperature of 115.00 °C.

As for `*CC(*)c1ccc(OCCC(C)C)cc1` (repeat unit), the glass transition temperature amounted to 57.00 °C.

`*CC(*)c1ccc(OP2(OCCOCCOCCOC)=NP(OCCOCCOCCOC)(OCCOCCOCCOC)=NP(OCCOCCOCCOC)(OCCOCCOCCOC)=N2)cc1` (repeat unit) gave a glass transition temperature of -46.00 °C.

As to `*CC(*)c1ccc([Si](C)(C)O)cc1` (repeat unit), the glass transition temperature is 147.00 °C.

On to `*CC(*)c1ccc([Si](C)(C)O[Si](C)(C)C)cc1` (repeat unit), for which the glass transition temperature amounted to 35.50 °C.

`*CC(*)c1ccc([Si](O[Si](C)(C)C)(O[Si](C)(C)C)O[Si](C)(C)C)cc1` (repeat unit) had a glass transition temperature of 114.00 °C.

`*CC(*)c1cccc(NC(C)=O)c1` (repeat unit) came in with a glass transition temperature of 163.00 °C.

With `*CC(*)c1ccccc1Br` (repeat unit), the glass transition temperature is 149.00 °C.

In turn, `*CC(*)c1ccccc1C` (repeat unit) gave a glass transition temperature of 131.00 °C.

`*CC(*)c1ccccc1C(=O)NC` (repeat unit): the glass transition temperature came out at 189.00 °C.

Consider `*CC(*)c1ccccc1C(=O)OCCCCC` (repeat unit), for which the glass transition temperature came to 92.00 °C.

In turn, `*CC(*)c1ccccc1C(F)(F)F` (repeat unit) came in with a glass transition temperature of 165.00 °C.

In turn, `*CC(*)c1ccccc1COC` (repeat unit) registered a glass transition temperature of 89.00 °C.

The compound `*CC(*)c1ccccc1COCCC` (repeat unit) registered a glass transition temperature of 97.00 °C.

In turn, `*CC(*)c1ccccc1COCCCCCCCC` (repeat unit) registered a glass transition temperature of 13.00 °C.

Consider `*CC(*)c1ccccc1F` (repeat unit), for which the glass transition temperature worked out at 160.50 °C.

Take `*CC(*)c1ccccc1O` (repeat unit): the glass transition temperature was determined as 172.00 °C.

On to `*CC(*)c1nnn[nH]1` (repeat unit), for which the glass transition temperature was 72.00 °C.

Take `*CC(*)n1c2ccccc2c2c3ccccc3ccc21` (repeat unit): the glass transition temperature was determined as 291.50 °C.

The compound `*CC(*)n1ccc2ccccc21` (repeat unit) gave a glass transition temperature of 19.00 °C.

For the compound `*CC(=O)NCCCCCCNC(=O)CC1COC(*)CO1` (repeat unit), the glass transition temperature was 73.00 °C.

For the compound `*CC(C)(C)C1CC=C(*)CC1` (repeat unit), the glass transition temperature turned out to be 77.00 °C.

Turning to `*CC(CCCCCCCCCCCCCCCC)C1C(=O)N(CCCCNC(=O)C(F)(F)C(F)(F)C(F)(F)C(F)(F)C(F)(F)C(F)(F)C(F)(F)F)C(=O)C1*` (repeat unit), the glass transition temperature amounted to 63.00 °C.

`*CC(OC)C1C(=O)N(c2ccc(N(C)C)cc2)C(=O)C1*` (repeat unit) came in with a glass transition temperature of 221.00 °C.

The compound `*CC(OCCCC)C1(C)C(=O)OC(=O)C1(*)C` (repeat unit) came in with a glass transition temperature of 197.00 °C.

Turning to `*CC(OCCCC)C1C(=O)OC(=O)C1*` (repeat unit), the glass transition temperature came to 118.00 °C.

Compound `*CC(c1ccccc1)C1C(=O)N(C)C(=O)C1*` (repeat unit) had a glass transition temperature of 205.00 °C.

As for `*CC(c1ccccc1)C1C(=O)N(CCCCCCCCCCCC)C(=O)C1*` (repeat unit), the glass transition temperature is 70.00 °C.

As for `*CC(c1ccccc1)C1C(=O)N(CCN(CC)c2ccc(/N=N/c3ccc([N+](=O)[O-])cc3)cc2)C(=O)C1*` (repeat unit), the glass transition temperature is 172.00 °C.

Compound `*CC(c1ccccc1)C1C(=O)N(c2ccc(NC(=O)OCC3CCCN3c3ccc([N+](=O)[O-])cc3)cc2)C(=O)C1*` (repeat unit) returned a glass transition temperature of 208.00 °C.

`*CC1(C)CC(*)(C)C(=O)OC1=O` (repeat unit) displayed a glass transition temperature of 144.00 °C.

Compound `*CC1CC(*)C(=O)OC1=O` (repeat unit) had a glass transition temperature of 140.00 °C.

In turn, `*CC1CC(*)C(OC(=O)CCCCCCCCCCOc2ccc(-c3ccc(C#N)cc3)cc2)C1` (repeat unit) came in with a glass transition temperature of 30.50 °C.

As to `*CC1CCCC(Cn2c(=O)c3cc4c(=O)n(*)c(=O)c4cc3c2=O)C1` (repeat unit), the glass transition temperature is 263.00 °C.

`*CCC(C(=O)OC)C(*)C(=O)OC` (repeat unit) returned a glass transition temperature of 31.20 °C.

`*CCC(C)C(*)C` (repeat unit) came in with a glass transition temperature of -26.00 °C.

`*CCC1C(=O)N(C)C(=O)C1*` (repeat unit): the glass transition temperature turned out to be 141.20 °C.

In turn, `*CCC1C(=O)N(CC)C(=O)C1*` (repeat unit) returned a glass transition temperature of 109.20 °C.

Consider `*CCC1C(=O)N(CCCCCCCCCCCCCC)C(=O)C1*` (repeat unit), for which the glass transition temperature came out at 62.40 °C.

With `*CCC1CC(*)C2C3CC(C12)C(C)(C(=O)OC)C3` (repeat unit), the glass transition temperature was determined as 146.00 °C.

`*CCC1CC(*)C2C3CCC(C3)C12` (repeat unit) gave a glass transition temperature of 164.00 °C.

In turn, `*CCC1CC2C(CC(*)C2OC(=O)CCCCCCCCCCOc2ccc(-c3ccc(C#N)cc3)cc2)C1OC(=O)CCCCCCCCCCOc1ccc(-c2ccc(C#N)cc2)cc1` (repeat unit) registered a glass transition temperature of 23.50 °C.

As to `*CCCC1(CCCNC(=O)CCC2(CCC(=O)N*)c3ccccc3-c3ccccc32)c2ccccc2-c2ccccc21` (repeat unit), the glass transition temperature came to 165.00 °C.

Compound `*CCCCCCCCCNC(=O)C(OC)C(OC)C(=O)N*` (repeat unit) displayed a glass transition temperature of 84.00 °C.

The compound `*CCCCCCNC(=O)CCCC(=O)O*` (repeat unit) registered a glass transition temperature of -18.00 °C.

With `*CCCCCCNC(=O)CCP(C)(=O)CCC(=O)N*` (repeat unit), the glass transition temperature stood at 57.50 °C.

`*CCCCOC(=O)CCC(=O)O*` (repeat unit) gave a glass transition temperature of -32.00 °C.

Regarding `*CCCCOC(=O)CCCC(=O)O*` (repeat unit), the glass transition temperature is -36.50 °C.

For the compound `*CCN(CCOC(=O)CCC#CC#CCCC(=O)O*)c1ccc([N+](=O)[O-])cc1` (repeat unit), the glass transition temperature worked out at 30.00 °C.

The compound `*Cc1cccc(CNC(=O)c2cc(C(=O)N*)cc(C(C)(C)C)c2)c1` (repeat unit) displayed a glass transition temperature of 192.00 °C.

With `*OC(=O)CCC(=O)OC1COC2C(*)COC12` (repeat unit), the glass transition temperature was 77.00 °C.

In turn, `*OC(C)CCC(C)OC(=O)CCCCCCCCC(*)=O` (repeat unit) returned a glass transition temperature of -66.00 °C.

Take `*O[Si](C)(C)CCC/N=C/c1cc(Cc2ccc(O)c(/C=N/CCC[Si](*)(C)C)c2)ccc1O` (repeat unit): the glass transition temperature was -51.62 °C.

`*O[Si](C)(C)O[Si](C)(C)O[Si](C)(C)OC(C)CCC(*)C` (repeat unit) came in with a glass transition temperature of -90.00 °C.

The compound `*O[Si](C)(C)O[Si](C)(C)O[Si](C)(C)O[Si](C)(C)OC(C)CCC(*)C` (repeat unit) had a glass transition temperature of -96.00 °C.

Consider `*O[Si](C)(C)O[Si](C)(C)O[Si](C)(C)O[Si](C)(C)O[Si](C)(C)OC(C)CCC(*)C` (repeat unit), for which the glass transition temperature is -106.00 °C.

`*O[Si](C)(CCC(F)(F)F)CCC(F)(F)C(F)(F)C(F)(F)C(F)(F)C(F)(F)C(F)(F)CC[Si](*)(C)CCC(F)(F)F` (repeat unit): the glass transition temperature is -24.00 °C.

`*c1ccc2c(c1)C(=O)N(C1CCC(CC3CCC(N4C(=O)c5ccc(C(*)(C(F)(F)F)C(F)(F)F)cc5C4=O)C(C)C3)CC1C)C2=O` (repeat unit): the glass transition temperature is 225.00 °C.
